According to ChEMBL document CHEMBL1201862, “PubChem BioAssay data set” (2004):
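Where inhibition never reached the appropriate level, the endpoint shown equals the highest concentration tested. Otherwise, values were interpolated linearly from a five-concentration, 48-hour dose response in 96-well plates. GI50 is the concentration that inhibits growth by half.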 Active and inactive are the calls of the source. Rule as the data show it: active = GI50 up to about 1.1 µM and inactive = higher.

Experiments:
Assay in all cases: DTP human tumour cell line panel, 48 h
SR = test system: SR
A549 = test system: A549
M14 = test system: M14
K562 = test system: K562
OVCAR-3 = test system: OVCAR-3
NCI-H460 = test system: NCI-H460
MOLT-4 = test system: MOLT-4
MDA-MB-231 = test system: MDA-MB-231
NCI-H226 = test system: NCI-H226
CCRF-CEM = test system: CCRF-CEM
SK-MEL-28 = test system: SK-MEL-28
SF-268 = test system: SF-268
HOP-92 = test system: HOP-92
PC-3 = test system: PC-3
RXF 393 = test system: RXF 393
CAKI-1 = test system: CAKI-1
COLO 205 = test system: COLO 205
SNB-19 = test system: SNB-19
DU-145 = test system: DU-145
IGROV-1 = test system: IGROV-1

Measured: GI50

N/C(=N\N/C=C1\C=Nc2cc(C(F)(F)F)ccc2C1=O)NO
inactive: SR > 10 µM | A549 > 10 µM | M14 > 10 µM | K562 7.67 µM | OVCAR-3 > 10 µM | NCI-H460 > 10 µM | MOLT-4 > 10 µM | MDA-MB-231 > 10 µM | NCI-H226 > 10 µM | CCRF-CEM > 10 µM | SK-MEL-28 > 10 µM | SF-268 > 10 µM | HOP-92 > 10 µM | PC-3 > 10 µM | RXF 393 > 10 µM | CAKI-1 > 10 µM | COLO 205 > 10 µM | SNB-19 > 10 µM | DU-145 > 10 µM | IGROV-1 > 10 µM
